This passage reports IC50 results from US20210380606A1, “5-AZAINDAZOLE DERIVATIVES AS ADENOSINE RECEPTOR ANTAGONISTS” (Merck Patent GmbH, priority 2018, published 2021).

One assay concerns the target T1, human A2B receptors (Homo sapiens, UniProt P29275).
T1 construct: expressed in transfected cells; host or cells: HEK293
T1 sequence (P29275 1-332): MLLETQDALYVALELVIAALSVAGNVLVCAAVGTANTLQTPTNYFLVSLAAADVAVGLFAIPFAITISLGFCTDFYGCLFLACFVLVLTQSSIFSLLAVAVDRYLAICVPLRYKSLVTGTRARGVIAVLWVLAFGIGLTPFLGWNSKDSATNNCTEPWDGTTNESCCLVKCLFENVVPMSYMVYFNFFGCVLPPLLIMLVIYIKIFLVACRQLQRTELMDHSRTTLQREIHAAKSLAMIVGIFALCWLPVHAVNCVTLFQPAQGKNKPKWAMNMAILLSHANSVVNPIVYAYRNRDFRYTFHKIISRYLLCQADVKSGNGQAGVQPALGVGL
The assay can be described thus: Functional human A2B receptor activity, recombinant HEK293 cells, cAMP (HTRF). The class given is cell-based. Summed up: (§1)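 Read-out is cellular cAMP measured by HTRF, added once a 15 min incubation had ended. cAMP reflects adenosine receptor signalling as the second messenger.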
A general note: Time-resolved FRET reads energy transfer from a long-lived donor to a nearby acceptor.

The target of another assay is T2, human A2A receptors (Homo sapiens, UniProt P29274).
T2 construct: expressed in transfected cells; host or cells: HEK293
T2 sequence (P29274 whole entry): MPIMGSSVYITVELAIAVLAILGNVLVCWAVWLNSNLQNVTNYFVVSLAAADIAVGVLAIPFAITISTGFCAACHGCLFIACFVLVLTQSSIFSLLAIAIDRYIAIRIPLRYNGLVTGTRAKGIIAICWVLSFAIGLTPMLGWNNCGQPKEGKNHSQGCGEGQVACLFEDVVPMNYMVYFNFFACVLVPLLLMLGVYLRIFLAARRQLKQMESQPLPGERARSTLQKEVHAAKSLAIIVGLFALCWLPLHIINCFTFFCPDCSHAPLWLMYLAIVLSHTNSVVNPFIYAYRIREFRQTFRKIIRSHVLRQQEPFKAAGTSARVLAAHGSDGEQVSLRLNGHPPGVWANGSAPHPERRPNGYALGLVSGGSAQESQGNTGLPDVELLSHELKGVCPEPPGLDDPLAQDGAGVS
The assay can be described thus: Functional human A2A receptor activity, recombinant HEK293 cells, cAMP (HTRF). It counts as cell-based. Summed up:
as §1

Structures are written as SMILES. Where two headings read alike, the source gives them in different places.

On to `O=C(c1ccc2c(-c3cnc4ccc(Cl)cn34)nn(CC(F)(F)F)c2c1)N1CCCCCC1` [analogue to No. 48, reference compound], for which the IC50 at human A2B receptors (read-out: Functional A2B receptor activity HEK293, cAMP IC50) was above 1000 nM; on human A2A receptors (read-out: Functional A2A receptor activity, HEK293, cAMP, IC50) it was below 100 nM.

As to `CS(=O)(=O)Cn1nc(-c2coc3ccccc23)c2cnc(C(=O)N3CCOCC(F)(F)C3)cc21` [Compound 29, (3-Benzofuran-3-yl-1-methanesulfonylmethyl-1H-pyrazolo[4,3-c]pyridin-6-yl)-(6,6-difluoro-1,4-oxazepan-4-yl)-methanone], the IC50 on human A2B receptors (read-out: A2B (Category)) was below 1000 nM; at human A2A receptors (read-out: A2A (Category)), below 100 nM.

In the case of `CC(C)N(C(=O)c1cc2c(cn1)c(-c1coc3ccccc13)nn2CC(F)(F)F)C(C)C` [Compound 233, 3-(benzofuran-3-yl)-N,N-diisopropyl-1-(2,2,2-trifluoroethyl)pyrazolo[4,3-c]pyridine-6-carboxamide], the IC50 is below 1000 nM at human A2B receptors (read-out: A2B (Category)) and below 100 nM on human A2A receptors (read-out: A2A (Category)).

`O=C(c1cc2c(cn1)c(-c1cnc3c(F)cc(F)cn13)nn2CC(F)(F)F)N1CCOC2(CCC2)C1` [Compound 192, [3-(6,8-Difluoro-imidazo[1,2-a]pyridin-3-yl)-1-(2,2,2-trifluoro-ethyl)-1H-pyrazolo[4,3-c]pyridin-6-yl]-(5-oxa-8-aza-spiro[3.5]non-8-yl)-methanone]: the IC50 at human A2B receptors (read-out: A2B (Category)) is below 1000 nM; at human A2A receptors (read-out: A2A (Category)) it was below 100 nM.

Regarding `CCCn1nc(-c2coc3ccccc23)c2cnc(C(=O)N3CCCOCC3)cc21` [Compound 106, (3-Benzofuran-3-yl-1-propyl-1H-pyrazolo[4,3-c]pyridin-6-yl)-1,4-oxazepan-4-yl-methanone], the results for the IC50 at human A2B receptors (read-out: A2B (Category)) and on human A2A receptors (read-out: A2A (Category)) were below 1000 nM and below 100 nM, respectively.

Consider `O=C(c1cc2c(cn1)c(-c1coc3ccccc13)nn2CC(F)(F)F)N1CC2CCC(C1)C2O` (stereo not drawn) [Compound 218, [3-Benzofuran-3-yl-1-(2,2,2-trifluoro-ethyl)-1H-pyrazolo[4,3-c]pyridin-6-yl]-(8-endo-hydroxy-3-aza-bicyclo[3.2.1]oct-3-yl)-methanone], for which the IC50 on human A2B receptors (read-out: A2B (Category)) and on human A2A receptors (read-out: A2A (Category)) was below 100 nM each time.

On to `CC1(O)CCN(C(=O)c2cc3c(cn2)c(-c2coc4ccccc24)nn3CS(C)(=O)=O)CC1` [Compound 32, (3-Benzofuran-3-yl-1-methanesulfonylmethyl-1H-pyrazolo[4,3-c]pyridin-6-yl)-(4-hydroxy-4-methyl-piperidin-1-yl)-methanone], for which the IC50 on human A2B receptors (read-out: A2B (Category)) is below 1000 nM; at human A2A receptors (read-out: A2A (Category)), below 100 nM.

`CCCn1nc(-c2coc3ccccc23)c2cnc(C(=O)N3[C@@H]4CC[C@H]3C[C@@H](O)C4)cc21` [Compound 222, (3-Benzofuran-3-yl-1-propyl-1H-pyrazolo[4,3-c]pyridin-6-yl)-(3-endo-hydroxy-8-aza-bicyclo[3.2.1]oct-8-yl)-methanone]: the IC50 on human A2B receptors (read-out: A2B (Category)) was below 1000 nM; at human A2A receptors (read-out: A2A (Category)), below 100 nM.

With `O=C(c1cc2c(cn1)c(-c1cnc3c(F)cc(F)cn13)nn2CC1CC1)N1CCCOCC1` [Compound 9, [1-Cyclopropylmethyl-3-(6,8-difluoro-imidazo[1,2-a]pyridin-3-yl)-1H-pyrazolo[4,3-c]pyridin-6-yl]-1,4-oxazepan-4-yl-methanone], the values for the IC50 at human A2B receptors (read-out: A2B (Category)) and at human A2A receptors (read-out: A2A (Category)) were below 1000 nM and below 100 nM, respectively.

For `O=C(c1cc2c(cn1)c(-n1cnc3ccc(F)cc31)nn2CC(F)(F)F)N1CCCOCC1` [Compound 252, [3-(6-fluorobenzimidazol-1-yl)-1-(2,2,2-trifluoroethyl)pyrazolo[4,3-c]pyridin-6-yl]-(1,4-oxazepan-4-yl)methanone], the IC50 at human A2B receptors (read-out: A2B (Category)) and on human A2A receptors (read-out: A2A (Category)) was below 100 nM in each case.

Consider `O=C(c1cc2c(cn1)c(-c1coc3ccccc13)nn2CC(F)(F)F)N1CCCC(F)(F)C1` [Compound 226, [3-(benzofuran-3-yl)-1-(2,2,2-trifluoroethyl)pyrazolo[4,3-c]pyridin-6-yl]-(3,3-difluoro-1-piperidyl)methanone], for which the values for the IC50 at human A2B receptors (read-out: A2B (Category)) and at human A2A receptors (read-out: A2A (Category)) were below 1000 nM and below 100 nM, respectively.

Take `O=C(c1cc2c(cn1)c(-c1cnc3ccc(O)cn13)nn2CC(F)(F)F)N1CCCCCC1` [Compound 68, Azepan-1-yl-[3-(6-hydroxy-imidazo[1,2-a]pyridin-3-yl)-1-(2,2,2-trifluoro-ethyl)-1H-pyrazolo[4,3-c]pyridin-6-yl]-methanone]: the IC50 is below 1000 nM at human A2B receptors (read-out: A2B (Category)) and below 100 nM at human A2A receptors (read-out: A2A (Category)).

In the case of `O=C(c1cc2c(cn1)c(-c1coc3ccccc13)nn2CC(F)(F)F)N1CC2CCC(C2)C1` [Compound 101, (3-Aza-bicyclo[3.2.1]oct-3-yl)-[3-benzofuran-3-yl-1-(2,2,2-trifluoro-ethyl)-1H-pyrazolo[4,3-c]pyridin-6-yl]-methanone], the IC50 at human A2B receptors (read-out: A2B (Category)) and at human A2A receptors (read-out: A2A (Category)) was below 100 nM each time.

On to `NC(=O)c1ccc2ncc(-c3nn(CC(F)(F)F)c4cc(C(=O)N5CCCOCC5)ncc34)n2c1` [Compound 246, 3-[6-(1,4-Oxazepane-4-carbonyl)-1-(2,2,2-trifluoro-ethyl)-1H-pyrazolo[4,3-c]pyridin-3-yl]-imidazo[1,2-a]pyridine-6-carboxylic acid amide], for which the IC50 is below 1000 nM on human A2B receptors (read-out: A2B (Category)) and below 100 nM on human A2A receptors (read-out: A2A (Category)).

`CS(=O)(=O)Cn1nc(-c2cnc3c(F)cc(F)cn23)c2cnc(C(=O)N3[C@@H]4CC[C@H]3C[C@@H](O)C4)cc21` [Compound 25, [3-(6,8-Difluoro-imidazo[1,2-a]pyridin-3-yl)-1-methanesulfonylmethyl-1H-pyrazolo[4,3-c]pyridin-6-yl]-(3-endo-hydroxy-8-aza-bicyclo[3.2.1]oct-8-yl)-methanone]: the IC50 at human A2B receptors (read-out: A2B (Category)) and on human A2A receptors (read-out: A2A (Category)) was below 100 nM throughout.

For `O=C(c1cc2c(cn1)c(-c1cnc3cc(Cl)c(F)cn13)nn2CC(F)(F)F)N1CCCCCC1` [Compound 73, Azepan-1-yl-[3-(7-chloro-6-fluoro-imidazo[1,2-a]pyridin-3-yl)-1-(2,2,2-trifluoro-ethyl)-1H-pyrazolo[4,3-c]pyridin-6-yl]-methanone], the IC50 at human A2B receptors (read-out: A2B (Category)) and at human A2A receptors (read-out: A2A (Category)) was below 100 nM each time.

As to `CS(=O)(=O)Cn1nc(-c2coc3ccc(F)cc23)c2cnc(C(=O)N3CC4CCC(C3)O4)cc21` [Compound 111, [3-(5-fluorobenzofuran-3-yl)-1-(methylsulfonylmethyl)pyrazolo[4,3-c]-pyridin-6-yl]-(8-oxa-3-azabicyclo[3.2.1]octan-3-yl)methanone], the IC50 at human A2B receptors (read-out: A2B (Category)) and at human A2A receptors (read-out: A2A (Category)) was below 100 nM each time.

As to `O=C(c1cc2c(cn1)c(-c1cnc3c(F)cc(F)cn13)nn2CC(F)(F)F)N1CC2CC1CO2` (stereo not drawn) [Compound 135, [3-(6,8-Difluoro-imidazo[1,2-a]pyridin-3-yl)-1-(2,2,2-trifluoro-ethyl)-1H-pyrazolo[4,3-c]pyridin-6-yl]-(2-oxa-5-aza-bicyclo[2.2.1]hept-5-yl)-methanone], the IC50 on human A2B receptors (read-out: A2B (Category)) was below 1000 nM; on human A2A receptors (read-out: A2A (Category)), below 100 nM.

With `CSCn1nc(-c2cnc3c(F)cc(F)cn23)c2cnc(C(=O)N3CC4CCC(C4)C3)cc21` [Compound 14, (3-Aza-bicyclo[3.2.1]oct-3-yl)-[3-(6,8-difluoro-imidazo[1,2-a]pyridin-3-yl)-1-methylsulfanylmethyl-1H-pyrazolo[4,3-c]pyridin-6-yl]-methanone], the IC50 at human A2B receptors (read-out: A2B (Category)) and on human A2A receptors (read-out: A2A (Category)) was below 100 nM in each case.

For `O=C(c1cc2c(cn1)c(-c1coc3ccccc13)nn2CC(F)(F)F)N1CCCOCC1` [Compound 94, [3-Benzofuran-3-yl-1-(2,2,2-trifluoro-ethyl)-1H-pyrazolo[4,3-c]pyridine-6-yl]-1,4-oxazepan-4-yl-methanone], the IC50 on human A2B receptors (read-out: A2B (Category)) and on human A2A receptors (read-out: A2A (Category)) was below 100 nM in each case.

As to `CC(C)(C)OC(=O)N1CC2CC1CN2C(=O)c1cc2c(cn1)c(-c1cnc3c(F)cc(F)cn13)nn2CC(F)(F)F` (stereo not drawn) [Compound 194, 5-[3-(6,8-Difluoro-imidazo[1,2-a]pyridin-3-yl)-1-(2,2,2-trifluoro-ethyl)-1H-pyrazolo[4,3-c]pyridine-6-carbonyl]-2,5-diaza-bicyclo[2.2.1]heptane-2-carboxylic Acid Tert-Butyl Ester], the IC50 at human A2B receptors (read-out: A2B (Category)) and at human A2A receptors (read-out: A2A (Category)) was below 100 nM in each case.

As for `COCC1CCCN1C(=O)c1cc2c(cn1)c(-c1cnc3c(F)cc(F)cn13)nn2CC(F)(F)F` (stereo not drawn) [Compound 149, [3-(6,8-Difluoro-imidazo[1,2-a]pyridin-3-yl)-1-(2,2,2-trifluoro-ethyl)-1H-pyrazolo[4,3-c]pyridin-6-yl]-(2-methoxymethyl-pyrrolidin-1-yl)-methanone], the figures for the IC50 at human A2B receptors (read-out: A2B (Category)) and on human A2A receptors (read-out: A2A (Category)) were below 1000 nM and below 100 nM, respectively.

Take `O=C(c1cc2c(cn1)c(-c1coc3ccccc13)nn2CC(F)(F)F)N1CCC(F)CC1` [Compound 216, [3-Benzofuran-3-yl-1-(2,2,2-trifluoro-ethyl)-1H-pyrazolo[4,3-c]pyridin-6-yl]-(4-fluoro-piperidin-1-yl)-methanone]: the IC50 was below 1000 nM on human A2B receptors (read-out: A2B (Category)) and below 100 nM on human A2A receptors (read-out: A2A (Category)).

As for `O=C(c1cc2c(cn1)c(-c1c[nH]c3ccccc13)nn2CC(F)(F)F)N1[C@@H]2CC[C@H]1C[C@@H](O)C2` [Compound 112, (3-endo-hydroxy-8-azabicyclo[3.2.1]octan-8-yl)-[3-(1H-indol-3-yl)-1-(2,2,2-trifluoroethyl)pyrazolo[4,3-c]pyridin-6-yl]methanone], the IC50 on human A2B receptors (read-out: A2B (Category)) and at human A2A receptors (read-out: A2A (Category)) was below 100 nM in each case.
